Experimental findings from patent publication US20200009088A1, “COMPOSITIONS AND METHODS FOR TREATING ANDROGEN-INDEPENDENT CANCER” (The Regents of the University of California, priority 2017, published 2020) are described below.

For one assay, the system named is C4-2B MDVR cells. The assay is described as follows: Cell growth assay (cell numbers), C4-2B MDVR. It counts as cell-based. Particulars: for cell growth: increasing doses of niclosamide/analogs, FIG. 6; for synergy with abiraterone in inhibiting cell growth / synergy with enzalutamide in inhibiting cell growth: C4-2BMDVR, FIG. 10; for synergy with abiraterone in inhibiting cell growth: analog 0.25 μM + abiraterone 5 μM; for synergy with enzalutamide in inhibiting cell growth: analog 0.25 μM + enzalutamide 20 μM.

Assay [1] concerns CWR22Rv1 cells. The assay is described as follows: Cell growth assay (cell numbers), CWR22Rv1. The format is cell-based. Particulars: for cell growth: CWR22Rv1, 48 hours, increasing doses of niclosamide/analogs, FIG. 6.
For a further assay, the system named is AR. Briefly: Western blot of AR expression in CWR22Rv1 cell lysates. To be noted: CWR22Rv1 cells, FIG. 2A. The format is cell-based. How it is done:
(§1) “AR-Variants” represents a combination of all forms of AR.
(§2) The effects of the synthetic small molecule modulators on AR and AR variant expression were determined. CWR22Ry1 prostate cancer cells were treated with different compounds. Protein lysates were analyzed for AR and AR variant expression.

Assay [2] relates to CWR22Rv1 cells. Briefly: Cell growth assay (cell numbers), CWR22Rv1. It counts as cell-based. Particulars: for cell growth, combination with bicalutamide: CWR22Rv1, analog 0.25 μM + bicalutamide 20 μM, 0, 3, 5 days; for cell growth, combination with enzalutamide: CWR22Rv1, analog 0.25 μM + enzalutamide 20 μM, 0, 3, 5 days; for cell growth, combination with enzalutamide / cell growth, combination with abiraterone: FIGS. 9, 11; for cell growth, niclosamide analog alone: CWR22Rv1, analog 0.25 μM, 0, 3, 5 days, FIGS. 9, 11, 12; for synergy with abiraterone in inhibiting cell growth: CWR22Rv1, analog 0.25 μM + abiraterone 5 μM; for cell growth, combination with abiraterone: CWR22Rv1, analog 0.25 μM + abiraterone 5 μM, 0, 3, 5 days; for synergy with enzalutamide in inhibiting cell growth: CWR22Rv1, analog 0.25 μM + enzalutamide 20 μM. How it is done:
DMSO treatment was used as a negative control. Total cell numbers were counted at 0, 3, and 5 days.
DMSO treatment was used as a negative control. Total cell numbers were counted at 0, 3, and 5 days. […]
The cell growth was determined at 3,5 days. […] The cell growth was determined at 3,5 days.

The target of assay [3] is T1, AR-V7 (Homo sapiens, UniProt P10275).
T1 sequence (P10275 1-644 isoform P10275-3): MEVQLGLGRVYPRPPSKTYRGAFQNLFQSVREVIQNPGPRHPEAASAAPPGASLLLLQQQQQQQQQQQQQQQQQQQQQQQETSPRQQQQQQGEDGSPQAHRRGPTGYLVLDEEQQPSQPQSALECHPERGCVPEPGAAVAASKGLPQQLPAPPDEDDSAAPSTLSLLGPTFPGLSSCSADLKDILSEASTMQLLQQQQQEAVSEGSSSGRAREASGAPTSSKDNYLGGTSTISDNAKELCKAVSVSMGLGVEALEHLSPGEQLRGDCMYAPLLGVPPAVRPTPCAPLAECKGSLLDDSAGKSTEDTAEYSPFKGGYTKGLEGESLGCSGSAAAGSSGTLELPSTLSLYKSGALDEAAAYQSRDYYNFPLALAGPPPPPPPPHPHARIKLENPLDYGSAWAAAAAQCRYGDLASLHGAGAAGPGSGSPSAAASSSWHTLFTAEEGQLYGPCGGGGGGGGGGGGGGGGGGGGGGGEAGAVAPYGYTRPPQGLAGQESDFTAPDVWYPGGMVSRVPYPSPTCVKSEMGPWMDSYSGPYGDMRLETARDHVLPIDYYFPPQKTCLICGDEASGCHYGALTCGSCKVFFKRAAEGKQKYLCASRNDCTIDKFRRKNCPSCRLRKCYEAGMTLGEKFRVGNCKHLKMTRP
The assay is described as follows: Western blot of AR-V7 expression in CWR22Rv1 cell lysates. The format is cell-based. Also noted: endogenous in cells; host or cells: CWR22Rv1 prostate cancer cells (also grown as xenograft tumours). Particulars: CWR22Rv1 cells, FIG. 2A. How it is done:
as §1, §2
For orientation: A western blot detects proteins with antibodies after separation by electrophoresis.

A further assay has as its system PSA. The assay is described as follows: PSA protein expression by ELISA in C4-2 cells overexpressing AR-V7. It counts as cell-based. To be noted: C4-2-V7 cells, FIG. 3. How it is done:
PSA protein expression was determined by ELISA assay. * denotes p<0.05.
On the technique in general: An ELISA detects its analyte on a solid surface through an enzyme-linked reagent.

The next assay has as its system C4-2B AbiR cells. Briefly: Cell growth assay (cell numbers), C4-2B AbiR. It counts as cell-based. Particulars: 0.5 μM + enzalutamide, 48 hours, FIG. 7C.
Another assay deals with C4-2-V7 cells. The assay is described as follows: Cell growth assay (cell numbers), C4-2-V7. The format is cell-based. Particulars: C4-2-V7, 0.5 μM + enzalutamide, 48 hours, FIG. 7D.
Another assay deals with C4-2BMDVR cells. Briefly: ELISA cell death (apoptosis) assay. Particulars: FIG. 8. The format is cell-based. How it is done:
To further examine the anti-cancer effects of these compounds, an ELISA cell death assay was performed.

For assay [4], the target named is T1, AR-V7. Briefly: PSA-luc reporter in LNCaP cells co-transfected with AR-V7. Particulars: LNCaP cells co-transfected with AR-V7, FIG. 4.
Experimental: The luciferase activity was then determined. * denotes p<0.05.
In addition, the effects on AR transcriptional activity were determined using PSA-luc as a reporter. LNCaP cells were cotransfected with PSA-luc together with or without AR-V7, and treated with the compounds.

“Also recorded” adds a separate entry of the source.

For the molecule `CNC(=O)c1ccc(N2C(=S)N(c3cnc(C#N)c(C(F)(F)F)c3)C(=O)C23CCC3)cc1F` [ARN509, reference compound], the cell growth entry with C4-2B MDVR cells (C4-2B MDVR, 48 hours) is listed as “did not inhibit”; in the assay on CWR22Rv1 cells [1] it was “did not inhibit”.
For the molecule `O=C(Nc1ccc([N+](=O)[O-])cc1Cl)c1cccc(Cl)c1` [Compound 1], the AR expression result with AR is on record as “no effect”. Also, in the assay on CWR22Rv1 cells [2] (FIG. 12), the “cell growth, combination with bicalutamide” value was “not able to inhibit”. Further, in the assay with CWR22Rv1 cells [2], the “cell growth, combination with enzalutamide” value is listed as “nor the was the combination of these compounds with enzalutamide or abiraterone able to inhibit” and the “cell growth, niclosamide analog alone” value is on record as “Neither of Compounds 1 or 34 alone were able to inhibit; also recorded: None of Compounds 1, 7, 30, 31, or 34 alone were able to inhibit”. In the assay on C4-2B MDVR cells, the “synergy with abiraterone in inhibiting cell growth” value is “neither Compound 1 nor Compound 34 were able to synergize” and the “synergy with enzalutamide in inhibiting cell growth” value is listed as “neither Compound 1 nor Compound 34 were able to synergize”. In addition, at AR-V7 [3], the “AR-V7 (AR variant) expression” value is recorded as “no effect”.
Regarding `O=C(Nc1ccc([N+](=O)[O-])cc1Cl)c1ccccc1O` [Compound 2], in the assay with AR, the AR expression entry is “no effect”. Further, in the assay with CWR22Rv1 cells [2], the “synergy with abiraterone in inhibiting cell growth” value was “but not Compounds 2 and 17, were able to synergize”; the “cell growth, combination with abiraterone” value is given as “nor was a combination of either of these compounds with enzalutamide or abiraterone able to inhibit”; the “cell growth, combination with enzalutamide” value is “nor was a combination of either of these compounds with enzalutamide or abiraterone able to inhibit”; the “cell growth, niclosamide analog alone” value is listed as “neither Compounds 2 nor Compound 17 alone were able to inhibit”. Besides, at AR-V7 [3], the “AR-V7 (AR variant) expression” value is given as “no effect”.
For the molecule `O=C(Nc1cc(C(F)(F)F)cc(C(F)(F)F)c1)c1cc(Cl)ccc1O` [Compound 5], the AR expression entry with AR is reported as “inhibited”. For the same molecule, the “AR-V7 (AR variant) expression” value at AR-V7 [3] was “inhibited”.
`O=C(Nc1ccccc1Cl)c1cc(Cl)ccc1O` [Compound 8]: in the assay with AR, the AR expression entry is given as “no effect”. Further, the “AR-V7 (AR variant) expression” value at AR-V7 [3] is “no effect”.
Take `O=C(Nc1cc(C(F)(F)F)cc(C(F)(F)F)c1)c1cc(Cl)ccc1O` [Compound 11]: in the assay with CWR22Rv1 cells [2], the “synergy with abiraterone in inhibiting cell growth” value is given as “able to synergize”; the “cell growth, combination with abiraterone” value is “able to significantly inhibit”; the “synergy with enzalutamide in inhibiting cell growth” value is “able to synergize”; the “cell growth, combination with enzalutamide” value is “able to significantly inhibit”.
Consider `O=C(Nc1cc(F)cc(F)c1)c1cc(Cl)ccc1O` [Compound 17], for which the AR expression result in the assay with AR is recorded as “no effect”. In addition, in the assay with CWR22Rv1 cells [2], the “synergy with abiraterone in inhibiting cell growth” value is “but not Compounds 2 and 17, were able to synergize”; the “cell growth, combination with abiraterone” value is on record as “nor was a combination of either of these compounds with enzalutamide or abiraterone able to inhibit”; the “cell growth, combination with enzalutamide” value was “nor was a combination of either of these compounds with enzalutamide or abiraterone able to inhibit”; the “cell growth, niclosamide analog alone” value was “neither Compounds 2 nor Compound 17 alone were able to inhibit”. Moreover, the “AR-V7 (AR variant) expression” value at AR-V7 [3] is given as “no effect”.
Take `O=C(O)COc1ccc(Cl)cc1C(=O)Nc1ccc([N+](=O)[O-])cc1Cl` [Compound 29]: the AR expression entry with AR was “no effect”. For the same molecule, the “AR-V7 (AR variant) expression” value on AR-V7 [3] is reported as “no effect”.
`CCC(=O)Oc1ccc(Cl)cc1C(=O)Nc1ccc([N+](=O)[O-])cc1Cl` [Compound 30]: in the assay on AR, the AR expression result is given as “inhibited”. Also, the PSA expression entry with PSA (compound alone, ELISA) is “inhibited”. For the same molecule, the “enzalutamide-mediated PSA inhibition” value with PSA (in presence of enzalutamide (MDV)) is on record as “further enhanced”. Also, the “synergy with abiraterone in inhibiting cell growth” value in the assay on CWR22Rv1 cells [2] and in the assay with C4-2B MDVR cells was “able to synergize” in each case. In addition, in the assay with CWR22Rv1 cells [2], the “cell growth, combination with abiraterone” value is “significantly inhibited”. The “cell growth, combination with bicalutamide” value in the assay with CWR22Rv1 cells [2] (FIG. 12) was “able to significantly inhibit”. In addition, the “synergy with bicalutamide in inhibiting cell growth” value in the assay on CWR22Rv1 cells [2] (CWR22Rv1, analog 0.25 μM + bicalutamide 20 μM, FIG. 12) is “able to synergize”. For the same molecule, the “synergy with enzalutamide in inhibiting cell growth” value in the assay with CWR22Rv1 cells [2] and with C4-2B MDVR cells was “able to synergize” each time. The “cell growth, combination with enzalutamide” value in the assay on CWR22Rv1 cells [2] is given as “significantly inhibited”. The “cell growth, niclosamide analog alone” value in the assay on CWR22Rv1 cells [2] is recorded as “None of Compounds 1, 7, 30, 31, or 34 alone were able to inhibit”. In addition, the “cell proliferation, combination with enzalutamide (MDV)” value is reported as “further inhibited” in the assay on C4-2B MDVR cells (C4-2B MDVR, 0.5 μM + enzalutamide, 48 hours, FIG. 7B); “further inhibited” with C4-2B AbiR cells; “further inhibited” in the assay on C4-2-V7 cells; “further inhibited” with CWR22Rv1 cells [1] (CWR22Rv1, 0.5 μM + enzalutamide, 48 hours, FIG. 7A). The cell apoptosis result with C4-2BMDVR cells (compound alone, analogs compared with niclosamide) is listed as “further enhanced”. Also, the “apoptotic cell death, combination with enzalutamide (MDV)” value with C4-2BMDVR cells (with enzalutamide) is given as “further increased”. The “AR-V7 mediated PSA-luc activity” value on AR-V7 [4] is “inhibited”. Besides, the “AR-V7 (AR variant) expression” value at AR-V7 [3] is on record as “inhibited”.
With `COC(=O)COc1ccc(Cl)cc1C(=O)Nc1ccc([N+](=O)[O-])cc1Cl` [Compound 34], the AR expression result with AR is on record as “no effect”. In addition, in the assay with CWR22Rv1 cells [2] (FIG. 12), the “cell growth, combination with bicalutamide” value is “not able to inhibit”. Besides, in the assay on CWR22Rv1 cells [2], the “cell growth, combination with enzalutamide” value is “nor the was the combination of these compounds with enzalutamide or abiraterone able to inhibit” and the “cell growth, niclosamide analog alone” value is “Neither of Compounds 1 or 34 alone were able to inhibit; also recorded: None of Compounds 1, 7, 30, 31, or 34 alone were able to inhibit”. In the assay with C4-2B MDVR cells, the “synergy with abiraterone in inhibiting cell growth” value is “neither Compound 1 nor Compound 34 were able to synergize” and the “synergy with enzalutamide in inhibiting cell growth” value is “neither Compound 1 nor Compound 34 were able to synergize”. For the same molecule, the “AR-V7 (AR variant) expression” value on AR-V7 [3] is “no effect”.
Consider `CC(C)(C)OC(=O)COc1ccc(Cl)cc1C(=O)Nc1ccc([N+](=O)[O-])cc1Cl` [Compound 35], for which, in the assay with AR, the AR expression result is on record as “no effect”. Also, the “AR-V7 (AR variant) expression” value on AR-V7 [3] is given as “no effect”.
For `C[C@]12CC[C@H](O)CC1=CC[C@@H]1[C@@H]2CC[C@]2(C)C(c3cccnc3)=CC[C@@H]12` [abiraterone, reference compound], the cell growth result in the assay with C4-2B MDVR cells (C4-2B MDVR, 48 hours) was “did not inhibit”; with CWR22Rv1 cells [1], “did not inhibit”.
For the molecule `CNC(=O)c1ccc(N2C(=S)N(c3ccc(C#N)c(C(F)(F)F)c3)C(=O)C2(C)C)cc1F` [enzalutamide, reference compound], in the assay with CWR22Rv1 cells [2] (CWR22Rv1, enzalutamide 20 μM or abiraterone 5 μM, 0, 3, 5 days, FIG. 9), the “cell growth, antiandrogen alone” value is “resistant”. Moreover, the cell growth entry is “did not inhibit” with C4-2B MDVR cells (C4-2B MDVR, 48 hours) and “did not inhibit” in the assay with CWR22Rv1 cells [1].
